In paper PMC10177510, “A Multicenter, Open-Label, Phase I/II Study of FN-1501 in Patients with Advanced Solid Tumors” (Cancers, 2023):

Assay: Phase I/II dose escalation: safety and tolerability (DLT, TEAE)
Assay type: in vivo
Method: This Phase 1/2, FIH, open-label, multi-center, single-arm, dose-escalation study was conducted in pts with histologically or cytologically confirmed advanced solid tumors or R/R AML.
In the absence of worrisome toxicity, the remaining pts could be enrolled and dosed in that cohort. Safety evaluations were performed by investigators, the medical monitor, and the Sponsor. A Safety Monitoring Committee determined dose levels to be administered during dose escalation based on data available from the current and previous dose levels.

CN1CCN(Cc2ccc(NC(=O)c3[nH]ncc3Nc3ncnc4[nH]ccc34)cc2)CC1 [FN-1501]
Dose-Limiting Toxicity (2.5 mg/day, 4 patients): 0
Abdominal pain, patients with event (2.5 mg/day, N = 4): 1
Back pain, patients with event (2.5 mg/day, N = 4): 1
Constipation, patients with event (2.5 mg/day, N = 4): 0
Decreased appetite, patients with event (2.5 mg/day, N = 4): 1
Diarrhea, patients with event (2.5 mg/day, N = 4): 0
Dizziness, patients with event (2.5 mg/day, N = 4): 0
Dyspnea, patients with event (2.5 mg/day, N = 4): 1
Fatigue, Grade ≥ 3 TEAE, n (%) (2.5 mg/day, N = 4): 1 (25)
Fatigue, patients with event (2.5 mg/day, N = 4): 1
Infusion-related reaction, patients with event (2.5 mg/day, N = 4): 0
Nausea, patients with event (2.5 mg/day, N = 4): 1
Oedema peripheral, patients with event (2.5 mg/day, N = 4): 1
Pyrexia, patients with event (2.5 mg/day, N = 4): 0
Total number of TEAEs (2.5 mg/day, N = 4): 20
Total patients with at least 1 TEAE (2.5 mg/day, N = 4): 4
Vomiting, patients with event (2.5 mg/day, N = 4): 1
Dose-Limiting Toxicity (5 mg/day, 3 patients): 0
Abdominal pain, patients with event (5 mg/day, N = 3): 1
Back pain, patients with event (5 mg/day, N = 3): 0
Constipation, patients with event (5 mg/day, N = 3): 1
Decreased appetite, patients with event (5 mg/day, N = 3): 0
Diarrhea, patients with event (5 mg/day, N = 3): 1
Diarrhoea, Grade ≥ 3 TEAE, n (%) (5 mg/day, N = 3): 1
Dizziness, patients with event (5 mg/day, N = 3): 0
Dyspnea, patients with event (5 mg/day, N = 3): 0
Fatigue, patients with event (5 mg/day, N = 3): 1
Infusion-related reaction, patients with event (5 mg/day, N = 3): 1
Nausea, patients with event (5 mg/day, N = 3): 1
Oedema peripheral, patients with event (5 mg/day, N = 3): 1
Pyrexia, patients with event (5 mg/day, N = 3): 1
Small intestinal obstruction, Grade ≥ 3 TEAE, n (%) (5 mg/day, N = 3): 1 (33)
Total number of TEAEs (5 mg/day, N = 3): 23
Total patients with at least 1 TEAE (5 mg/day, N = 3): 3
Vomiting, patients with event (5 mg/day, N = 3): 1
Dose-Limiting Toxicity (10 mg/day, 5 patients): 0
Abdominal pain, patients with event (10 mg/day, N = 5): 0
Back pain, patients with event (10 mg/day, N = 5): 0
Bacterial sepsis, Grade ≥ 3 TEAE, n (%) (10 mg/day, N = 5): 1
Constipation, patients with event (10 mg/day, N = 5): 1
Decreased appetite, patients with event (10 mg/day, N = 5): 0
Delirium, Grade ≥ 3 TEAE, n (%) (10 mg/day, N = 5): 1
Diarrhea, patients with event (10 mg/day, N = 5): 0
Dizziness, patients with event (10 mg/day, N = 5): 0
Dyspnea, patients with event (10 mg/day, N = 5): 1
Fatigue, patients with event (10 mg/day, N = 5): 2
Infusion-related reaction, patients with event (10 mg/day, N = 5): 0
Lung infection, Grade ≥ 3 TEAE, n (%) (10 mg/day, N = 5): 1
Nausea, patients with event (10 mg/day, N = 5): 1
Oedema peripheral, patients with event (10 mg/day, N = 5): 0
Pyrexia, patients with event (10 mg/day, N = 5): 0
Stomatitis, Grade ≥ 3 TEAE, n (%) (10 mg/day, N = 5): 1
Total number of TEAEs (10 mg/day, N = 5): 25
Total patients with at least 1 TEAE (10 mg/day, N = 5): 4
Vomiting, patients with event (10 mg/day, N = 5): 1
Dose-Limiting Toxicity (15 mg/day, 3 patients): 0
Abdominal pain, patients with event (15 mg/day, N = 3): 1
Back pain, patients with event (15 mg/day, N = 3): 1
Catheter site infection, Grade ≥ 3 TEAE, n (%) (15 mg/day, N = 3): 1
Constipation, patients with event (15 mg/day, N = 3): 1
Decreased appetite, patients with event (15 mg/day, N = 3): 0
Diarrhea, patients with event (15 mg/day, N = 3): 2
Dizziness, patients with event (15 mg/day, N = 3): 2
Dyspnea, patients with event (15 mg/day, N = 3): 0
Fatigue, patients with event (15 mg/day, N = 3): 0
Infusion-related reaction, patients with event (15 mg/day, N = 3): 1
Nausea, patients with event (15 mg/day, N = 3): 2
Oedema peripheral, patients with event (15 mg/day, N = 3): 0
Pyrexia, patients with event (15 mg/day, N = 3): 1
Total number of TEAEs (15 mg/day, N = 3): 41
Total patients with at least 1 TEAE (15 mg/day, N = 3): 3
Vascular access complication, Grade ≥ 3 TEAE, n (%) (15 mg/day, N = 3): 1
Vomiting, patients with event (15 mg/day, N = 3): 0
Dose-Limiting Toxicity (22.5 mg/day, 4 patients): 0
Abdominal pain, Grade ≥ 3 TEAE, n (%) (22.5 mg/day, N = 4): 1
Abdominal pain, patients with event (22.5 mg/day, N = 4): 2
Back pain, patients with event (22.5 mg/day, N = 4): 0
Constipation, patients with event (22.5 mg/day, N = 4): 1
Decreased appetite, patients with event (22.5 mg/day, N = 4): 2
Diarrhea, patients with event (22.5 mg/day, N = 4): 0
Dizziness, patients with event (22.5 mg/day, N = 4): 1
Dyspnea, patients with event (22.5 mg/day, N = 4): 1
Fatigue, patients with event (22.5 mg/day, N = 4): 2
Infusion-related reaction, patients with event (22.5 mg/day, N = 4): 0
Nausea, patients with event (22.5 mg/day, N = 4): 1
Oedema peripheral, patients with event (22.5 mg/day, N = 4): 0
Pyrexia, patients with event (22.5 mg/day, N = 4): 1
Total number of TEAEs (22.5 mg/day, N = 4): 26
Total patients with at least 1 TEAE (22.5 mg/day, N = 4): 4
Vomiting, patients with event (22.5 mg/day, N = 4): 1
Dose-Limiting Toxicity (30 mg/day, 3 patients): 0
Abdominal pain, patients with event (30 mg/day, N = 3): 1
Back pain, patients with event (30 mg/day, N = 3): 0
Constipation, patients with event (30 mg/day, N = 3): 0
Decreased appetite, patients with event (30 mg/day, N = 3): 0
Diarrhea, patients with event (30 mg/day, N = 3): 1
Dizziness, patients with event (30 mg/day, N = 3): 0
Dyspnea, patients with event (30 mg/day, N = 3): 0
Fatigue, patients with event (30 mg/day, N = 3): 1
Hyponatraemia, Grade ≥ 3 TEAE, n (%) (30 mg/day, N = 3): 1
Infusion-related reaction, patients with event (30 mg/day, N = 3): 0
Nausea, patients with event (30 mg/day, N = 3): 1
Oedema peripheral, patients with event (30 mg/day, N = 3): 0
Pyrexia, patients with event (30 mg/day, N = 3): 0
Syncope, Grade ≥ 3 TEAE, n (%) (30 mg/day, N = 3): 1 (33)
Total number of TEAEs (30 mg/day, N = 3): 16
Total patients with at least 1 TEAE (30 mg/day, N = 3): 3
Vomiting, patients with event (30 mg/day, N = 3): 0
Dose-Limiting Toxicity (40 mg/day, 4 patients): 0
Abdominal distension, Grade ≥ 3 TEAE, n (%) (40 mg/day, N = 4): 1 (25)
Abdominal pain, patients with event (40 mg/day, N = 4): 0
Back pain, patients with event (40 mg/day, N = 4): 0
Blood alkaline phosphatase increased, Grade ≥ 3 TEAE, n (%) (40 mg/day, N = 4): 1 (25)
Blood bilirubin increased, Grade ≥ 3 TEAE, n (%) (40 mg/day, N = 4): 1 (25)
Constipation, patients with event (40 mg/day, N = 4): 0
Decreased appetite, patients with event (40 mg/day, N = 4): 0
Diarrhea, patients with event (40 mg/day, N = 4): 1
Dizziness, patients with event (40 mg/day, N = 4): 0
Dyspnea, patients with event (40 mg/day, N = 4): 0
Fatigue, patients with event (40 mg/day, N = 4): 1
Hyponatraemia, Grade ≥ 3 TEAE, n (%) (40 mg/day, N = 4): 1
Infusion-related reaction, patients with event (40 mg/day, N = 4): 0
Nausea, patients with event (40 mg/day, N = 4): 0
Oedema peripheral, patients with event (40 mg/day, N = 4): 1
Peritonitis, Grade ≥ 3 TEAE, n (%) (40 mg/day, N = 4): 1 (25)
Pyrexia, patients with event (40 mg/day, N = 4): 1
Total number of TEAEs (40 mg/day, N = 4): 21
Total patients with at least 1 TEAE (40 mg/day, N = 4): 4
Vomiting, patients with event (40 mg/day, N = 4): 1
Dose-Limiting Toxicity (54 mg/day, 3 patients): 0
Abdominal pain, patients with event (54 mg/day, N = 3): 0
Anaemia, Grade ≥ 3 TEAE, n (%) (54 mg/day, N = 3): 1 (33)
Back pain, patients with event (54 mg/day, N = 3): 0
Constipation, patients with event (54 mg/day, N = 3): 0
Decreased appetite, patients with event (54 mg/day, N = 3): 0
Diarrhea, patients with event (54 mg/day, N = 3): 0
Dizziness, patients with event (54 mg/day, N = 3): 0
Dyspnea, patients with event (54 mg/day, N = 3): 0
Fatigue, Grade ≥ 3 TEAE, n (%) (54 mg/day, N = 3): 1 (33)
Fatigue, patients with event (54 mg/day, N = 3): 2
Infusion-related reaction, patients with event (54 mg/day, N = 3): 1
Nausea, patients with event (54 mg/day, N = 3): 0
Oedema peripheral, patients with event (54 mg/day, N = 3): 0
Pyrexia, patients with event (54 mg/day, N = 3): 0
Total number of TEAEs (54 mg/day, N = 3): 12
Total patients with at least 1 TEAE (54 mg/day, N = 3): 3
Vomiting, patients with event (54 mg/day, N = 3): 0
Dose-Limiting Toxicity (72 mg/day, 3 patients): 0
Abdominal pain, patients with event (72 mg/day, N = 3): 1
Back pain, patients with event (72 mg/day, N = 3): 1
Constipation, patients with event (72 mg/day, N = 3): 0
Decreased appetite, patients with event (72 mg/day, N = 3): 0
